In assay [1] the test system is M. pneumoniae adhesion to coverslips. Put plainly: Inhibition of nonspecific adhesion of M. pneumoniae to coverslips without cells. Format: binding, Mycoplasma pneumoniae strain M129. The note with it: coverslips preincubated in medium containing fetal calf serum. The method, then:
(§1) Adhesion of [^3 H]-M. pneumoniae to cells on glass covered slips was measured by a modification of a method previously described by Chandler et al., Infect. Immun., op. cit. WiDr human colon adenocarcinoma, ATCC CCL 218 was grown in Eagle's minimal essential medium with 10% fetal calf serum in a 5% CO2 atmosphere at 37° C. The cells were removed with trypsin and plated on 12 mm round glass coverslips in 24-well tissue culture plates and grown for three days. Control coverslips were preincubated in medium without cells. The coverslips were washed in serum-free medium, then incubated in RPMI-BSA for fifteen minutes. The medium was removed and labelled M. pneumoniae suspended in 0.5 ml of RPMI-BSA were added to each well. The plates were incubated on a rocking table for 60 minutes at 37° C. The coverslips were washed by dipping in saline six times, and the bound radioactive bacteria were determined by scintillation counting. For inhibition studies, the inhibitors were added to M. pneumoniae prior to adding the bacteria to the coverslips.
(§2) Adhesion of labelled M. pneumoniae to WiDr cells on glass cover slips was determined as described previously. For inhibition studies, dextran sulfate and 3'-sialyllactose were dissolved in RPMI-BSA and the pH was adjusted to 7.4 with NaOH. The inhibitors were added to wells containing washed cover slips with attached WiDr cells or blank cover slips preincubated in medium or tris-BSA. Labelled M. pneumoniae were added immediately and incubated with slow rocking for sixty minutes at 37° C. After the coverslips were washed by dipping six times in saline, bound M. pneumoniae were determined by scintillation counting in Aquasol. […] After washing to remove the unbound organisms, the bound mycoplasma were determined by scintillation counting. Binding to uncoated wells was 3% of the applied radioactivity.

Assay [2] concerns the target M. pneumoniae binding to sulfatide. Put plainly: Inhibition of M. pneumoniae binding to sulfatide adsorbed on plastic. Also noted: species or system Mycoplasma pneumoniae strain M129. The conditions noted are these: for inhibition of binding to sulfatide (in words): sulfatide adsorbed on plastic. The method, then:
Virulent M. pneumoniae strain M129, passage 5-15, were grown and metabolically labelled with [^3 H]palmitic acid, 12-17 Ci/mole, as described by Chandler et al. in Infect. Immun. 37: 942, 1982. The organisms were passed four times through a 26 gauge needle and suspended to approximately 10^7 cpm/ml of degassed RPMI 1640 medium containing 1% bovine serum albumin and 25 mM HEPES, pH 7.3.
The binding of M. pneumoniae to purified glycolipids immobilized in microtiter plates was measured as described by Krivan et al. in Proc. Natl. Acad. Sci., op. cit. Purified glycolipids were serially diluted in 25 μl of methanol containing 0.1 μg each of the auxiliary lipids cholesterol and phosphatidylcholine. After the solutions were dried by evaporation, the wells were filled with TBS-BSA, emptied after one hour, rinsed with RPMI-BSA, and incubated with 25 μl of [^3 H]-M. pneumoniae, approximately 10^7 cpm/ml RPMI-BSA. After incubation for two hours at 37° C., unless otherwise stated, the wells were washed five times with saline and bound M. pneumoniae was quantified by scintillation counting in Aquasol. For inhibition studies, various polysaccharides were serially diluted in […] of [^3 H]-M. pneumoniae.
To obtain the results shown in FIG. 4, polysaccharides were serially diluted in 25 μl of RPMI-BSA in microtiter wells previously coated with 1 μg of purified sulfatide. Binding was determined after incubation of two hours at 37° C. with 25 μl of [^3 H]-M. pneumoniae with the indicated concentration of dextran ( .circle. ) or dextran sulfate.

Assay [3] relates to M. pneumoniae adhesion to MRC5 lung fibroblasts. Put plainly: Inhibition of M. pneumoniae adhesion to MRC5 lung fibroblasts. The note with it: mean of three experiments. Format: cell-based, human. The method, then:
as §1
Because virulent strains of M. pneumoniae adhere to mammalian cells, monolayers of WiDr cells were used to determine if dextran sulfate inhibits adhesion of the organism. [^3 H] -labelled M. pneumoniae was incubated with WiDr cell monolayers attached to coverslips in triplicate with an without dextran sulfate, as shown in Table II. […]

For assay [4], the target named is M. pneumoniae binding to laminin. Put plainly: Inhibition of M. pneumoniae binding to laminin adsorbed on plastic. Also noted: species or system Mycoplasma pneumoniae strain M129. The note with it: laminin adsorbed on plastic. The method, then:
Glycoproteins dissolved in 0.01 M sodium phosphate buffer, pH 7.4, containing 150 mM NaCl, 1 mM CaCl2, and 0.01% NaN3 were adsorbed onto plastic polyvinylchloride […] microtiter plates by incubation for 16 hours at 4° C. The unbound proteins were removed, and the wells were filled with tris-BSA and incubated for 30 minutes at room temperature. The wells were rinsed with RPMI1640 containing 25 mM HEPES, pH 7.3, and 1% bovine serum albumin. M. pneumoniae strain M129 labelled with [^3 H]-palmitate were dispersed in RPMI-BSA by passing four times through a 26 gauge needle, and 50 μl of the suspension was applied to the wells. After incubation for 60 minutes at 37° C., the wells were washed five times with saline and the labelled M. pneumoniae bound to the proteins were quantified by scintillation counting in Aquasol.
For inhibition studies, sugars in 25 μl of RPMI-BSA were added to wells coated with 10 μg/ml laminin followed by 25 μl of [^3 H]-M. pneumoniae. Binding was determined to both laminin-coated and uncoated wells in triplicate at each inhibitor concentration and in the absence of inhibitor. In some experiments, the adsorbed proteins were pretreated with neuraminidase. After adsorption of the proteins and incubation in tris-BSA, the wells were rinsed three times with 50 mM sodium acetate, pH 5.5, containing 150 mM NaCl, 5 mM CaCl2, 1 mg/ml bovine serum albumin, and 1 mM phenylmethanesulfonyl fluoride. The wells were incubated with 0.05 units/ml neuraminidase in the same buffer or with buffer without enzyme overnight at 20° C. The wells were rinsed three times with tris-BSA, and M. pneumoniae binding was determined as described above.

Assay [5] has as its system M. hominus adhesion to human colon adenocarcinoma cells. Nature of the assay: Inhibition of M. hominus adhesion to cultured human colon adenocarcinoma cells. The class given is cell-based.
Assay [6] has as its system M. pneumoniae adhesion to WiDr cells. Put plainly: Inhibition of M. pneumoniae adhesion to WiDr human colon adenocarcinoma cell monolayers. Format: cell-based. The conditions noted are these: WiDr cells. The method, then:
as §1
Because virulent strains of M. pneumoniae adhere to mammalian cells, monolayers of WiDr cells were used to determine if dextran sulfate inhibits adhesion of the organism. [^3 H] -labelled M. pneumoniae was incubated with WiDr cell monolayers attached to coverslips in triplicate with an without dextran sulfate, as shown in Table II. […] In each experiment, 10 μg/ml dextran sulfate inhibited more than 1 μg/ml, but 100 μg/ml dextran sulfate caused no further inhibition. Thus, maximal inhibition was obtained with approximately 10 μg/ml of dextran sulfate. Similar results were obtained with MRC5 lung fibroblasts where in three experiments a mean of 47% of M. pneumoniae adhesion was inhibited by dextran sulfate.
as §2
Adhesion of [^3 H]-M. pneumoniae to WiDr cells growing on 13 mm glass cover slips was determined as described above. Inhibition by dextran sulfate or 3'-sialyllactose at the indicated concentrations was calculated relative to control binding determined in RPMI/BSA without inhibitors. The results are presented as percent inhibition (mean±S.D. n=4 with n=8 for determination of control binding without inhibitor).

Assay [7] deals with M. hominus binding to sulfatide. Nature of the assay: Inhibition of M. hominus binding to purified sulfatide. Also noted: species or system Mycoplasma hominus.

Data on one substance can be found in patent publication US5089479A, “Adhesion of Mycoplasma pneumoniae and Mycoplasma hominus to sulfatide” (priority 1988, dated 1992).

“Also recorded” adds a separate entry of the source.

Turning to dextran sulfate, the “inhibition of non-specific adhesion to coverslips (in words)” value in assay [1] is “not by dextran sulfate”. Besides, in assay [2] (1 μg sulfatide, 37° C., 2 hours), the “concentration inhibiting binding to sulfatide by 50%” value was determined as 0.4 µg/mL. Also, in assay [2] (1 μg/ml), the “inhibition of binding to sulfatide at 1 μg/ml (in words)” value is “completely abolished binding”. For the same substance, the results for the “inhibition of binding to sulfatide (in words)” value in assay [2] and in assay [2] (listed as Dextran sulfate) were “potent inhibitor; also recorded: completely inhibits binding” and “inhibits M. pneumoniae binding to sulfatide”, respectively. In addition, the “inhibition of M. pneumoniae adhesion” value in assay [3] is recorded as 47%. Moreover, in assay [4], the “I.D.50, substrate laminin” value is > 200 µg/mL. The results for the “inhibition of binding to laminin (in words)” value in assay [4] and in assay [4] (listed as Dextran sulfate) were “no effect” and “does not inhibit attachment on laminin”, respectively. In assay [5], the “inhibition of M. hominus adhesion (in words)” value was “partially inhibits adhesion”. The “concentration giving maximal inhibition of adhesion” value in assay [6] is on record as “approximately 10 μg/ml”. Besides, the figures for the “inhibition of adhesion to WiDr cells (in words)” value in assay [6] and in assay [6] (listed as Dextran sulfate) were “partially inhibit; also recorded: only partially inhibited; also recorded: partially inhibits adhesion; also recorded: partial inhibition” and “inhibited adhesion in all three experiments”, respectively. Further, the “inhibition of M. hominus binding to sulfatide (in words)” value in assay [7] is reported as “completely inhibits binding”.
